Consider one compound from patent US4389414A, “Prostaglandin compositions” (Syntex (U.S.A.) Inc., priority 1981, dated 1983).

SMILES strings stand for the structures. Values joined by “and” are separate entries in the source; they are usually repeats but may differ in a detail not shown here. Identical values can stand only once.

The data set is described as follows: Absorption rate of carbon-14 Compound A from different vehicles after SQ or IM injection (Example 2, Table I). The conditions noted are these: for Relative Percent Absorption: compared to aqueous buffer over 6 hours. In kind it is in vivo, rats. The method, then:
A series of experiments was carried out to determine the absorption rate of a compound which are useful in the composition of this invention as compared to other compositions which are not included within the scope of the claims of the invention. In each experiment 56 rats were used. Two groups of 27 rats are required for the test formulations and the two remaining rats are used to obtain blank plasma samples. […] Each composition is prepared by dissolving 2.7 milligrams of the compound in 10 milliliters of the solvent. This represents approximately 5 microcuries of carbon 14 and 41 micrograms of dl-9α,11α,15α-trihydroxy-16-phenoxy-17,18,19,20-tetranorprosta-4,5,13-trans-trienoic acid (Compound A). Blood samples from each of three rats from each group are obtained by […] at the following time points after injection: 15 minutes, 30 minutes, 45 minutes, 60 minutes, 2 hours, 3 hours, 4 hours, 5 hours and 6 hours. The two untreated rats are sampled to obtain blank plasma sample.
*Compared to aqueous buffer over 6 hours.

The mark [1] stands for this setting: vehicle 90% Glycerin H2O, SQ, .15 ml, 5 μCi.
[2] abbreviates: vehicle Aq. Buffer, IM, .15 ml, 5 μCi.
[3] abbreviates: vehicle Aq. Buffer, SQ, .15 ml, 5 μCi.
Setting [4] is: vehicle Glycerin, SQ, .15 ml, 5 μCi.
The mark [5] stands for this setting: vehicle PEG 400, IM, .15 ml, 5 μCi.
[6] abbreviates: vehicle PEG 400, SQ, .15 ml, 5 μCi.
Setting [7] is: vehicle PEG 400, SQ, .30 ml, 10 μCi.

For `O=C(O)CCC=C=CC[C@@H]1[C@@H](/C=C/[C@@H](O)COc2ccccc2)[C@H](O)C[C@@H]1O` (relative stereo) [Compound A, dl-9α,11α,15α-trihydroxy-16-phenoxy-17,18,19,20-tetranorprosta-4,5,13-trans-trienoic acid], the “Absorption Rate Constant Ka” value is, setting by setting: under setting [1], 6.5 hr^1; under setting [2], 10.14 hr^1; under setting [3], 10.14 hr^1; under setting [4], 5.0 hr^1; under setting [5], 3.7 hr^1; under setting [6], 3.7 hr^1. Further, the “Absorption Rate Constant Ka” value under setting [7] turned out to be 3.7 hr^1. Moreover, the “Relative Percent Absorption” value by setting is: under setting [1], 51.5%; under setting [2], 100%; under setting [3], 60.9%; under setting [4], 50.4%; under setting [5], 35.5%; under setting [6], 27.6% and 31.4%. Also, under setting [7], the “Relative Percent Absorption” value came to 26.2%.
